Twelve compounds from ChEMBL document CHEMBL1155573, “Aristolactams and dioxoaporphines from Fissistigma balansae and Fissistigma oldhamii” (2000) can be followed below.

Holding throughout (type): functional
Holding throughout (settings): Oryctolagus cuniculus

The subject of assay [1] is Platelet. Kind of assay: Inhibition of arachidonic acid-induced rabbit platelet aggregation at 100 ug/ml.
Assay [2] has as its system Platelet. Kind of assay: Inhibition of collagen-induced rabbit platelet aggregation at 100 ug/ml.
Assay [3] relates to Platelet. As to the kind of experiment: Inhibition of platelet-activating factor-induced rabbit platelet aggregation at 100 ug/ml.
Assay [4] concerns Platelet. Kind of assay: Inhibition of thrombin-induced rabbit platelet aggregation at 100 ug/ml.
In assay [5] the test system is Platelet. Kind of assay: Inhibition of arachidonic acid-induced rabbit platelet aggregation at 50 ug/ml.
Assay [6] relates to Platelet. As to the kind of experiment: Inhibition of collagen-induced rabbit platelet aggregation at 50 ug/ml.
Assay [7] relates to Platelet. Kind of assay: Inhibition of collagen-induced rabbit platelet aggregation at 10 ug/ml.
For assay [8], the system named is Platelet. As to the kind of experiment: Inhibition of collagen-induced rabbit platelet aggregation at 20 ug/ml.
For assay [9], the system named is Platelet. Kind of assay: Inhibition of arachidonic acid-induced rabbit platelet aggregation at 20 ug/ml.
Assay [10] has as its system Platelet. Kind of assay: Inhibition of arachidonic acid-induced rabbit platelet aggregation at 10 ug/ml.

Molecules are shown by their SMILES.

A word on the inhibition: it is the change of the read-out against control, counted positive when it falls. The low end stands for a weak effect, the high end for a strong effect. With `COc1c(O)cc2c3c(cc4ccc(O)cc4c13)NC2=O` [ARISTOLACTAM AIIIA], the inhibition at 100 µg/mL in the assay on Platelet [1] was determined as 56.9%; in the assay with Platelet [2], 39.6%; with Platelet [3] it was 80.7%; in the assay on Platelet [4] it was 90.6%.

As to `COc1c(O)cc2c3c(cc4ccccc4c13)NC2=O` [ARISTOLACTAM AII], the inhibition at 100 µg/mL with Platelet [1] was 86.3%; with Platelet [2] it was 82.5%; in the assay with Platelet [3], 78.3%; with Platelet [4], 90%.

As for `COc1ccc2cc3c4c(cc(OC)c(OC)c4c2c1)C(=O)N3` [ARISTOLACTAM BIII], the values for the inhibition at 50 µg/mL with Platelet [5] and in the assay with Platelet [6] were 86.6% and 59.1%, respectively. Also, the inhibition at 100 µg/mL in the assay on Platelet [1] turned out to be 71.9%; in the assay with Platelet [2] it was 0%; with Platelet [3], 60.6%; in the assay on Platelet [4], 89.3%.

Take `COc1c(O)c(OC)c2c3c(cc4ccccc42)NC(=O)c13` [ARISTOLACTAM F II]: the inhibition at 50 µg/mL in the assay with Platelet [5] is 16.5%; with Platelet [6], 14.5%. The inhibition at 10 µg/mL with Platelet [7] was 81.7%; with Platelet [10], 85.4%. For the same compound, the inhibition at 20 µg/mL was determined as 81.7% in the assay with Platelet [8] and 52.5% in the assay with Platelet [9]. The inhibition at 100 µg/mL in the assay with Platelet [1] stood at 8.5%; with Platelet [2] it was 9.7%; in the assay on Platelet [3], 6.7%; in the assay on Platelet [4], 83.9%.

Consider `CC(=O)Oc1ccccc1C(=O)O` [ASPIRIN], for which the inhibition at 100 µg/mL in the assay with Platelet [1] worked out at 0%; in the assay with Platelet [2], 87.8%; in the assay with Platelet [3], 90.4%.

Regarding `COc1cccc2c1c(OC)c1c3c(cc(O)c(OC)c32)C(=O)N1` [ENTEROCARPAM I], the inhibition at 50 µg/mL in the assay on Platelet [5] amounted to 13.5%; with Platelet [6] it was 25.8%. Besides, the figures for the inhibition at 10 µg/mL in the assay with Platelet [7] and with Platelet [10] were 83.7% and 83.5%, respectively. The results for the inhibition at 20 µg/mL in the assay with Platelet [8] and in the assay with Platelet [9] were 72.9% and 46.4%, respectively. In addition, the inhibition at 100 µg/mL in the assay with Platelet [1] turned out to be 2.2%; in the assay with Platelet [2], 43%; with Platelet [3], 70.8%; in the assay on Platelet [4] it was 86.5%.

As to `COc1cc2c3c(cc4ccc(O)cc4c3c1OC)NC2=O` [GONIOTHALACTAM], the inhibition at 50 µg/mL with Platelet [5] was determined as 50.4%; in the assay with Platelet [6], 17.3%. The inhibition at 10 µg/mL in the assay on Platelet [7] turned out to be 83%; in the assay with Platelet [10], 85.9%. The inhibition at 20 µg/mL in the assay on Platelet [8] was 75.9%; in the assay on Platelet [9] it was 81.6%. Moreover, the inhibition at 100 µg/mL in the assay with Platelet [1] came out at 13.6%; in the assay on Platelet [2] it was 10.5%; in the assay with Platelet [3] it was 67.3%; in the assay with Platelet [4], 89.8%.

The compound `COc1c(O)cc2c3c(cc4ccccc4c13)NC(=O)C2=O` [NORARISTOLODIONE] had an inhibition at 20 µg/mL with Platelet [8] of 84.7%. Moreover, the inhibition at 100 µg/mL in the assay with Platelet [1] worked out at 65.8%; in the assay on Platelet [2], 40.6%; with Platelet [3], 82.5%; with Platelet [4], 88.7%. The same compound yielded an inhibition at 50 µg/mL in the assay on Platelet [6] of 72%.

As for `COc1cc2c3c(cc4ccccc4c3c1O)NC2=O` [PIPEROLACTAM A], the values for the inhibition at 50 µg/mL with Platelet [5] and in the assay with Platelet [6] were 14.7% and 22.2%, respectively. The inhibition at 20 µg/mL was determined as 84.2% in the assay with Platelet [8] and 83.5% in the assay on Platelet [9]. For the same compound, the inhibition at 100 µg/mL worked out at 0% with Platelet [1], 0% with Platelet [2], 84.1% in the assay on Platelet [3] and 84.3% in the assay on Platelet [4].

`COc1c(OC)c(OC)c2c3c(cc4ccccc42)NC(=O)c13` [PIPEROLACTAM C]: the inhibition at 50 µg/mL was determined as 89.4% in the assay on Platelet [5] and 82% with Platelet [6]. For the same compound, the inhibition at 100 µg/mL in the assay on Platelet [1] turned out to be 7.8%; in the assay with Platelet [2], 0%; with Platelet [3], 6.1%; in the assay with Platelet [4], 83.7%.

As for `COc1c(OC)c(OC)c2c3c(cc4ccc(O)cc42)NC(=O)c13` [STIGMALACTAM], the inhibition at 50 µg/mL in the assay on Platelet [5] is 18.8%; in the assay on Platelet [6] it was 30.8%. The values for the inhibition at 20 µg/mL in the assay with Platelet [8] and with Platelet [9] were 72.9% and 46.4%, respectively. Moreover, the inhibition at 100 µg/mL in the assay on Platelet [1] was 14.2%; in the assay with Platelet [2], 10.1%; with Platelet [3] it was 70.8%; in the assay on Platelet [4] it was 91.9%.

Take `COc1cc2c3c(cc4c(O)cccc4c3c1OC)NC2=O` [VELUTINAM]: the inhibition at 50 µg/mL in the assay on Platelet [5] came out at 77.5%; in the assay on Platelet [6], 65.4%. Besides, the inhibition at 100 µg/mL in the assay on Platelet [1] was 37.5%; in the assay on Platelet [2], 18.4%; with Platelet [3], 87.3%; in the assay with Platelet [4], 92.1%.
